Experimental data reported in patent publication US8883192B2, “Compositions and methods for reducing or preventing obesity” (Nestec S.A., priority 2004, dated 2014).

Key:
[1] = test system: rats after surgically-induced menopause; settings: cited from earlier work
rat adipocytes = settings: cited from earlier work
[2] = Metabolic profile of isoflavones and their metabolites in blood of dogs; format: in vivo, dog; settings: blood of dogs tested; FIG. 8B
Source text: The following measurements were made for each animal: • Body weight, body condition score, DEXA. • Plasma concentrations of isoflavones and their metabolites • Blood leptin • Intravenous glucose tolerance test • Oxidative stress measurement (isoprostanes: 8-iso-prostaglandin F2α, formed from arachidonic acid in phospholipids by free radical reaction): 3-month samples
The metabolic profiles of isoflavones and their metabolites in the blood of humans (FIG. 8A) and dogs (FIG. 8B) were compared.

[3] = cited from earlier work
estrogen receptor (ER) = settings: compared with other isoflavones; cited from earlier work
topoisomerase II = settings: cited from earlier work
tyrosine protein kinase = settings: cited from earlier work
angiogenesis = settings: cited from earlier work

O=c1c(-c2ccc(O)cc2)coc2cc(O)ccc12 [Daidzein, daidzein]
body fat accumulation [1]: suppressing body fat accumulation
basal and epinephrine-stimulated lipolysis (rat adipocytes): enhanced
basal and insulin-stimulated lipogenesis (rat adipocytes): inhibited

Oc1ccc([C@H]2COc3cc(O)ccc3C2)cc1 [Equol]
form of isoflavone metabolite in the blood [2]: predominant form of isoflavone metabolite
antioxidant activity ([3]; compared with all the isoflavones tested, Setchell 2002): greatest antioxidant activity of all the isoflavones tested
induction of estrogen receptor (ER)-responsive transcription (estrogenic activity) (estrogen receptor (ER)): more strongly than any other isoflavones

O=C1c2ccc(O)cc2OCC1c1ccc(O)cc1 (stereo not shown) [dihydrodaidzein]
free radical scavenging activities ([3]; Jiang 2003): appears to have free radical scavenging activities

O=c1c(-c2ccc(O)cc2)coc2cc(O)cc(O)c12 [genistein]
inhibition of topoisomerase II (topoisomerase II): inhibitor
inhibition of tyrosine protein kinase (tyrosine protein kinase): inhibits
inhibition of angiogenesis (angiogenesis): inhibits angiogenesis
basal and epinephrine-stimulated lipolysis (rat adipocytes): enhanced
basal and insulin-stimulated lipogenesis (rat adipocytes): inhibited

COc1cc2c(=O)c(-c3ccc(O)cc3)coc2cc1O [glycitein]
body fat accumulation [1]: suppressing body fat accumulation
